Laboratory results: the supplement of paper PMC11208160

Test: recombinant UMI read abundance after kanamycin selection (control-corrected) (log10(CPM+1)); higher = more efficient recombination; extreme values may be limits of the assay; sequences stand for … in AGTGCAGAGAAAATCGGCCAGTTTTCTCTGCCTGCAGTCCGCATGCCGTGGGACCCCTTGGGTTCTAACCTGTTGCCTAGATTTATGCAGCGGACTGCCTTTCTCCCAAAGTGATAAACCGG…AGGTTGGTTTCACT; site = the 11-nt donor
In short: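 Under IPTG (0.07 mM) plus kanamycin, or without selection, Escherichia coli carrying a UMI-tagged donor and donor-binding-loop pair library and a target plasmid for the IS621 bridge recombinase were plated in two replicates. Recombinant UMIs were PCR-amplified across the donor–target junction and sequenced. Counts were converted to CPM, averaged over replicates, scaled by control-derived factors and reported as log10(CPM+1).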
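Note: IS621 bridge recombinase in Escherichia coli cells against a fixed T5 target plasmid.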

Row | Sequence | recombinant UMI read abundance (log10)
1 | GGCAAGACATGGACCGGTTTTCCCGGTAATCCGTATTTGCA (site GGCAAGACTTG) | 2.62
2 | GGCAATCCATGGACCGGTTTTCCCGGTAATCCGTATTTGAG (site GGCAATCCTAT) | 0
3 | GGCAATCCATGGACCGGTTTTCCCGGTAATCCGTATTTGAG (site GGCAATCCTCT) | 0.41
4 | GGCAATCCATGGACCGGTTTTCCCGGTAATCCGTATTTGAG (site GGCAATCCTGT) | 0
5 | GGCAATCCATGGACCGGTTTTCCCGGTAATCCGTATTTGAG (site GGCAATCCTTT) | 0.0105
6 | GGCAATCCATGGACCGGTTTTCCCGGTAATCCGTATTTGGA (site GGCAATCCTTA) | 0
7 | GGCAATCCATGGACCGGTTTTCCCGGTAATCCGTATTTGGA (site GGCAATCCTTC) | 0
8 | GGCAATCCATGGACCGGTTTTCCCGGTAATCCGTATTTGGA (site GGCAATCCTTG) | 0
9 | GGCAATCCATGGACCGGTTTTCCCGGTAATCCGTATTTGGA (site GGCAATCCTTT) | 0.00891
10 | GGCACGACATGGACCGGTTTTCCCGGTAATCCGTATTTGCG (site GGCACGACTCG) | 0.903
11 | GGCACGCCATGGACCGGTTTTCCCGGTAATCCGTATTTGTA (site GACACGCCTTA) | 0.00602
12 | GGCACGCCATGGACCGGTTTTCCCGGTAATCCGTATTTGTA (site GCCACGCCTTA) | 0.006
13 | GGCACGCCATGGACCGGTTTTCCCGGTAATCCGTATTTGTA (site GGCACGCCTTA) | 0.523
14 | GGCACGCCATGGACCGGTTTTCCCGGTAATCCGTATTTGTA (site GTCACGCCTTA) | 0.00471
15 | GGCACGTCATGGACCGGTTTTCCCGGTAATCCGTATTTGTT (site GGAACGTCTAA) | 0.027
16 | GGCACGTCATGGACCGGTTTTCCCGGTAATCCGTATTTGTT (site GGCACGTCTAA) | 0.595

Row | Sequence | recombinant UMI read abundance (log10)
17 | GGCACGTCATGGACCGGTTTTCCCGGTAATCCGTATTTGTT (site GGGACGTCTAA) | 0.00471
18 | GGCACGTCATGGACCGGTTTTCCCGGTAATCCGTATTTGTT (site GGTACGTCTAA) | 0.0192
19 | GGCAGAGCATGGACCGGTTTTCCCGGTAATCCGTATTTGAG (site GGCAGAGCTCT) | 1.67
20 | GGCCAAACATGGACCGGTTTTCCCGGTAATCCGTATTTGAC (site GGCCAAACTGT) | 1.73
21 | GGCCACCCATGGACCGGTTTTCCCGGTAATCCGTATTTGTA (site GGCCACCCTAA) | 0.0187
22 | GGCCACCCATGGACCGGTTTTCCCGGTAATCCGTATTTGTA (site GGCCACCCTCA) | 0.014
23 | GGCCACCCATGGACCGGTTTTCCCGGTAATCCGTATTTGTA (site GGCCACCCTGA) | 0
24 | GGCCACCCATGGACCGGTTTTCCCGGTAATCCGTATTTGTA (site GGCCACCCTTA) | 0.081
25 | GGCCACCCATGGACCGGTTTTCCCGGTAATCCGTATTTGTG (site GGCCACCCTAA) | 0.00884
26 | GGCCACCCATGGACCGGTTTTCCCGGTAATCCGTATTTGTG (site GGCCACCCTCA) | 0.00742
27 | GGCCACCCATGGACCGGTTTTCCCGGTAATCCGTATTTGTG (site GGCCACCCTGA) | 0
28 | GGCCACCCATGGACCGGTTTTCCCGGTAATCCGTATTTGTG (site GGCCACCCTTA) | 0.0265
29 | GGCCACGCATGGACCGGTTTTCCCGGTAATCCGTATTTGTT (site GGCCACACTAA) | 0.148
30 | GGCCACGCATGGACCGGTTTTCCCGGTAATCCGTATTTGTT (site GGCCACCCTAA) | 0.023
31 | GGCCACGCATGGACCGGTTTTCCCGGTAATCCGTATTTGTT (site GGCCACGCTAA) | 0.96
32 | GGCCACGCATGGACCGGTTTTCCCGGTAATCCGTATTTGTT (site GGCCACTCTAA) | 0.0156
